Holding throughout (details): read-out: K1; phosphate buffer pH 7.6, 25 °C; stronger site of two-site fit
Test [1] addresses PfRKIP (Plasmodium falciparum, UniProt Q7KQK1, P80L).
The target of test [2] is PfRKIP (Plasmodium falciparum, UniProt Q7KQK1, S96A).
Another test concerns the target HsRKIP (Homo sapiens, UniProt P30086). In words: ITC, sequential binding model. On the technique in general: Isothermal titration calorimetry measures the heat released or taken up as one component is titrated into another.
The target of test [3] is PfRKIP (Plasmodium falciparum, UniProt Q7KQK1, H92A).
Test [4] has as its target T1, PfRKIP (Plasmodium falciparum, UniProt Q7KQK1).
T1 sequence (Q7KQK1 1-190): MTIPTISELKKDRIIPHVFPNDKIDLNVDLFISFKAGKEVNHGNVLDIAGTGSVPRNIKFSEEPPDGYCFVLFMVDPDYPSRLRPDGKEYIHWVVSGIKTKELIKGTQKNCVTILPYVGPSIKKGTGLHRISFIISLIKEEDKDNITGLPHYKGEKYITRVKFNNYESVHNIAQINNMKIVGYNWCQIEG
In words: ITC, sequential binding model.

HsRKIP, sequence (P30086 whole entry): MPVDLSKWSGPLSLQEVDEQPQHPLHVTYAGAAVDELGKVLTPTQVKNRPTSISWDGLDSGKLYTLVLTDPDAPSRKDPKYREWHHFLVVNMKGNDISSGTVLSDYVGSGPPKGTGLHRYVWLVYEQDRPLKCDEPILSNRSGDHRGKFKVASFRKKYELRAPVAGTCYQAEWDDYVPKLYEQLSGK

On to `CCCCCCCCCCCCCCCC(=O)OC[C@H](COP(=O)(O)O[C@@H]1[C@H](O)[C@H](OP(=O)(O)O)[C@@H](O)[C@H](O)[C@H]1O)OC(=O)CCCCCCCCCCCCCCC` [PtdIns(3)P], for which the Kd at PfRKIP [1] was 109 µM; at PfRKIP [2], 15.6 µM; on HsRKIP, 43.5 µM; at PfRKIP [3], 15.6 µM; at PfRKIP [4], 11.5 µM.

The values are drawn from paper doi:10.1101/2023.08.23.554426v1 (biorxiv, 2023).
